Measured values published in ChEMBL document CHEMBL1159357, “Labdane and kaurane diterpenoids from Plectranthus fruticosus” (2003).
≈ marks a conversion by molar mass, not a printed value. Calls of active or inactive are those of the source. The rule behind the calls is not given here.

System: Staphylococcus aureus
Assay: Antimicrobial activity against Staphylococcus aureus
Type: functional

MIC [µg/mL] | SMILES | Activity
– | C=C1C[C@@]23CC[C@H]4[C@@](C)(CCC[C@@]4(C)C(=O)OC)[C@@H]2C[C@H](OC(C)=O)[C@H]1C3 | inactive
– | C=C/C(C)=C/C[C@H]1C(=C)CC[C@H]2C(C)(C)[C@@H](OC(C)=O)[C@H](O)C[C@]12C | inactive
31.2 (≈ 98.1 µM) | C[C@@]12CCC[C@@](C)(C(=O)O)[C@H]1CC[C@@]13C[C@H](CC[C@@H]21)[C@]1(C)O[C@H]31 | –
– | C[C@@]1(CO)CCC[C@]2(C)[C@@H]1CC[C@@]13C[C@H](CC[C@@H]21)[C@]1(C)O[C@H]31 | inactive
– | C=C/C(C)=C\C[C@@H]1C(=C)CC[C@@H]2C(C)(C)C[C@@H](OC(C)=O)C[C@@]12C | inactive
– | COC(=O)[C@]1(C)CCC[C@@]2(C)[C@@H]3CC[C@H]4C[C@@]3(CC[C@@H]21)[C@H]1O[C@@]41C | inactive
– | COC(=O)[C@]1(C)CCC[C@@]2(C)[C@@H]3C[C@H](OC(C)=O)[C@H]4C[C@]3(C=C4C)CC[C@@H]21 | inactive
